{
  "source": "paper PMC13081163",
  "about": "“Discovery of a novel Nrf2 activator that modulates mitochondrial function in neurons by regulating DHRS3-Nrf2 interaction after ischemic stroke” (Theranostics, 2026)",
  "key": {"[1]": {"test_system": "DHRS3", "experiment": "Western blotting of DHRS3 in SH-SY5Y cells after OGD/R", "format": "cell-based, human", "procedure": "The western blotting analysis was conducted as we previously described. First, the total protein was extracted using RIRA buffer and then the protein concentrations were determined using the BCA kit (P0012, Beyotime, China). The extraction of mitochondrial proteins was carried out according to the instructions (C3601, Beyotime, China). The samples were separated electrophoretically and then wet-transferred onto 0.2 μm PVDF membranes (88520, Thermo Scientific, USA). After blocking with 5% non-fat dry milk in Tris-buffered saline (TBS) (pH 7.4) containing 0.1% Tween 20 at room temperature for 2 h, the protein membranes were sequentially immersed with the primary antibody at 4 °C overnight and secondary antibody at room temperature for 1 h. Finally, the membranes were quantified using image analysis system."}, "[2]": {"biological_target": "Human recombinant Keap1 proteins (Homo sapiens, UniProt Q14145)", "sequence (Q14145 whole entry, the tested form may be a part)": "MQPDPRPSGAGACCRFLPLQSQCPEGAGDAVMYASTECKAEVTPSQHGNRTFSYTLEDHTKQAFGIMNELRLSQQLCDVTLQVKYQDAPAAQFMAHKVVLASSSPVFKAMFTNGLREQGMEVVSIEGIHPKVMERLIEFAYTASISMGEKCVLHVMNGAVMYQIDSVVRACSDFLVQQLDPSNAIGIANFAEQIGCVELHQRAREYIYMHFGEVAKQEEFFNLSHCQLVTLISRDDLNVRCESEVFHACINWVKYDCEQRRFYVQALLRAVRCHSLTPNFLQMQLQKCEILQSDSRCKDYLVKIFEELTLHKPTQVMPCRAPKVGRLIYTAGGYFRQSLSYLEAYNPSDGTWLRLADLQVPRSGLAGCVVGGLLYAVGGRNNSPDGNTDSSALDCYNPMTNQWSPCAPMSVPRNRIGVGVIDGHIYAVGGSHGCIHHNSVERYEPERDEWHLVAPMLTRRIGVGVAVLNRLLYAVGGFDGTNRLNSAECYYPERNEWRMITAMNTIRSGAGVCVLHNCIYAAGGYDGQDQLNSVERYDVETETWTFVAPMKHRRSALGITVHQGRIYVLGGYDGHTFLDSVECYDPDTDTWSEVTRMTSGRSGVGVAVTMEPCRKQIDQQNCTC", "experiment": "SPR binding to full-length Keap1", "design": "purchased Sinobiological ME18DE0203", "conditions": "read-out: KD, full-length Keap1 protein", "procedure": "The binding affinity of Cpd.51 or Oma to Keap1 proteins were measured using a Biacore T200. The overall experimental procedures were based on previous reports, [28]. Human recombinant Keap1 proteins or truncated form of Keap1 (residues 48-180 and residues 48-149) were captured on a CM5 chip by a standard amine coupling procedure. Binding sensorgrams were recorded by injecting various concentrations of Cpd.51 over the immobilized proteins surface. The dissociation constant was obtained by globally fitting the data (to the 1:1 Langmuir binding model using the Biacore Insight evaluation software (Cytiva, Marlborough, MA, USA). Affinity tests for Cpd.51 and DHRS3 were also performed using the aforementioned method."}, "[3]": {"biological_target": "T1, DHRS3-Nrf2 complex (Homo sapiens, UniProt O75911)", "T1 construct": "endogenous in cells; host or cells: SH-SY5Y", "T1 sequence (O75911 1-302)": "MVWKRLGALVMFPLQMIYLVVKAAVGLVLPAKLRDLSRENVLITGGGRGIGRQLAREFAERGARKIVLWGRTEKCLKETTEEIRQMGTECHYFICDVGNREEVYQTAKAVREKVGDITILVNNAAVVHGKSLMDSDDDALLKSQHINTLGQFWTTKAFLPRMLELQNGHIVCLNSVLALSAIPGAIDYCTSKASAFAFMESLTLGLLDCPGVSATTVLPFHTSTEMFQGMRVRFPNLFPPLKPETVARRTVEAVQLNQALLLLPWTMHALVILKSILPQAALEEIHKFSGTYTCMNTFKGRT", "experiment": "Co-IP of Nrf2-DHRS3 interaction in SH-SY5Y cells", "format": "cell-based", "conditions": "100 nM, physiological and OGD/R conditions", "procedure": "Co-IP experiments were performed as described. After SH-SY5Y cells were treated, lysates were collected and incubated with antibodies with rotation for 12 h at 4 °C. Then, they were incubated with protein A/G magnetic beads (88804, Thermo Scientific, USA) as specification. Subsequently, the beads were collected and immune complexes were isolated. Finally, protein complexes were incubated for 5 min at 95 °C after dissolving in the electrophoresis sample buffer, and subjected to western blotting."}, "[4]": {"test_system": "SH-SY5Y cells", "experiment": "Protection against OGD/R damage in SH-SY5Y cells (CCK-8)", "format": "cell-based, human", "conditions": "for EC50: Homo sapiens", "procedure": "To mimic ischemic conditions in vitro, cells were washed with PBS and then cultured for 2.5 h at 37 °C in glucose-free medium under anaerobic conditions (5% hydrogen, 90% nitrogen, and 5% carbon dioxide). OGD process was terminated by transferring cells back to normal glucose-containing medium under normoxic conditions (5% CO₂, 37 °C) and maintained for 24 h.\nIn the administration group, cells were exposed for 12 h with Cpd.51 prior to OGD. OGD lasted for 2.5 h and the reperfusion lasted for 24 h before the experiment was concluded. Subsequently, cell viability was determined using the cell counting kit-8 (CCK-8, C0039, Beyotime, China). In the experiment to explore the treatment time window, the only difference was the timing of the Cpd.51 treatment, while all other procedures remained unchanged.\nHek-293T cells were transiently transfected, using Lipofectamine™ 3000 and P3000™ reagent (L3000075, Invitrogen, USA) according to the manufacturer's instructions, with the wild-type, point-mutant and double-mutations constructs of Keap1, DHRS3 or Nrf2 (each at 0.5 ng/μL), respectively. Similarly, to promote the expression of the DHRS3 gene, a DHRS3 expression plasmids (0.5 ng/μL) was transfected as well as the corresponding negative controls into SH-SY5Y cells for 6 h, and further cultured with fresh medium for 18 h according to the manufacturer's instructions."}, "[5]": {"experiment": "Microsomal metabolic stability, dog", "format": "in vitro ADME", "conditions": "dog liver microsomes", "procedure": "The liver microsomal incubation system comprised human, dog, or rat liver microsomal protein (0.75 mg/mL), nicotinamide adenine dinucleotide phosphate (NADPH) generation system, potassium phosphate buffer (0.1 M, pH 7.4), substrate, and inhibitor. The assay was conducted by first preparing a potassium phosphate buffer. Compounds and liver microsomes were then diluted and pre-incubated at 37 °C before initiating the reaction with NADPH. Aliquots were quenched with acetonitrile containing internal standard at specified time points. After sample processing (shaking and centrifugation), the supernatants were analyzed by LC-MS/MS to determine metabolic stability."}, "[6]": {"experiment": "Pharmacokinetics in male rats (LC-MS/MS)", "format": "in vivo", "conditions": "SD, rat, plasma, iv, 5 mg/kg", "procedure": "Male SD rats were intravenous injection with Cpd.51, blood and brain tissues were collected 15 min, 1 h, 4 h, 6 h, 8 h and 24 h after drug administration. Samples were measured by a Shimadzu chromatography system (Shimadzu, Kyoto, Japan) coupled with an AB Sciex triple quadrupole 4500 mass spectrometer (SCIEX Triple Quad™ 4500 LC-MS/MS, Applied Biosystems Sciex, Ontario, Canada) using Analyst 1.4.2 software. A HPLC column (ACQUITY UPLC BEH C18, 2.1 × 50 mm, 1.7 μm) were used. Protein precipitation method was used for detection: 50 μL plasma sample or brain homogenate sample were added with 200 μL acetonitrile containing internal standard for precipitation, then vortexed for 3 min. The supernatant was injected into system for analysis after centrifugation."}, "[7]": {"experiment": "Pharmacokinetics in male rats (LC-MS/MS)", "format": "in vivo", "conditions": "SD, rat, plasma"}},
  "note": "Where two headings read alike, the source gives them in different places.",
  "data": [
    {"compound": "CC1(C)CCC2(C(=O)NO)CCC3(C)C(C(=O)C=C4C5(C)C=C(C#N)C(=O)C(C)(C)C5CCC43C)C2C1", "note": "(stereo not drawn) [Cpd.51]", "values": [
      {"measurement": "DHRS3 protein expression induced by OGD/R", "setting": "[1]", "result": "substantially attenuated this induction"},
      {"measurement": "Kd", "setting": "[2]", "result": 53900, "unit": "nM"},
      {"measurement": "DHRS3-Nrf2 complex formation (Co-IP)", "setting": "[3]", "result": "substantially reduced DHRS3-Nrf2 complex formation"},
      {"measurement": "OGD/R damage when administered at different time points", "setting": "[4]; 100 nM, CCK-8", "result": "consistently alleviated OGD/R damage"},
      {"measurement": "EC50", "setting": "[4]; SH-SY5Y, DHRS3-OE (DHRS3 overexpression plasmid), read-out: EC50 of cytoprotection against OGD/R", "result": 183, "unit": "nM"},
      {"measurement": "EC50", "setting": "[4]; SH-SY5Y, NC-OE, read-out: EC50 of cytoprotection against OGD/R", "result": 53, "unit": "nM"},
      {"measurement": "EC50", "setting": "[4]; read-out: EC50 against OGD/R damage", "result": 19.7, "unit": "nM"},
      {"measurement": "Remainig (%, t = 60 min)", "setting": "[5]", "result": 32.9, "unit": "%"},
      {"measurement": "CLint scaled", "setting": "[5]; dog, pH 7.4", "result": 51, "unit": "mL/min/kg"},
      {"measurement": "half-life", "setting": "[5]; dog, pH 7.4", "result": 0.653, "unit": "h"},
      {"measurement": "AUC(0-t)", "setting": "[6]", "result": "991 ± 70", "unit": "ng·h/mL"},
      {"measurement": "C0", "setting": "[6]", "result": "3410 ± 45", "unit": "ng/mL"},
      {"measurement": "Cmax", "setting": "[6]", "result": "2120 ± 75", "unit": "ng/mL"},
      {"measurement": "MRT last", "setting": "[6]", "result": "0.843 ± 0.054", "unit": "h"},
      {"measurement": "clearance", "setting": "[6]; i.v., read-out: CL_obs (converted)", "result": 83.5, "unit": "mL/min/kg"},
      {"measurement": "half-life", "setting": "[7]; 30 mg/kg, i.g. (oral)", "result": 6.36, "unit": "h"},
      {"measurement": "half-life", "setting": "[7]; iv, 5 mg/kg", "result": "1.49 ± 0.31", "unit": "h"},
      {"measurement": "AUC(0-t)", "setting": "[7]; po, 30 mg/kg, i.g.", "result": "685 ± 111", "unit": "ng·h/mL"},
      {"measurement": "Cmax", "setting": "[7]; po, 30 mg/kg, i.g.", "result": "124 ± 37", "unit": "ng/mL"},
      {"measurement": "MRT last", "setting": "[7]; po, 30 mg/kg, i.g.", "result": "5.17 ± 0.72", "unit": "h"},
      {"measurement": "bioavailability", "setting": "[7]; po, 30 mg/kg, i.g., read-out: F (oral bioavailability)", "result": 11.5, "unit": "%"}
    ]}
  ]
}
